# Experimental data: paper PMC9401487 (Clinical Cancer Research, 2021)
# Entries after “also recorded” stand apart in the source; their conditions may differ.
# Test system: patients with advanced solid tumors
# Assay: Phase I safety and tolerability
# Format: in vivo, human
# [1] = Cohort 1 (N=2), 20 mg BID 17 days + carboplatin
# [2] = Cohort 2 (N=7), 20 mg BID 10 days + carboplatin
# [3] = Cohort 3 (N=3), 40 mg BID 10 days + carboplatin
compound,measurement,setting,value
C[C@@H]1COCCN1c1cc(C2([S@](C)(=N)=O)CC2)nc(-c2cc[nH]c3nccc2-3)n1 [ceralasertib],"TEAE Abdominal pain, Grade 1–2",[1],"0 patients, n (%)"
same,"TEAE Abdominal pain, Grade ≥3",[1],"1 (50) patients, n (%)"
same,"TEAE Alanine aminotransferase increased, Grade 1–2",[1],"0 patients, n (%)"
same,"TEAE Alanine aminotransferase increased, Grade ≥3",[1],"0 patients, n (%)"
same,"TEAE Anemia, Grade 1–2",[1],"1 (50) patients, n (%)"
same,"TEAE Anemia, Grade ≥3",[1],"0 patients, n (%)"
same,"TEAE Any AE, Grade 1–2",[1],"1 (50) patients, n (%)"
same,"TEAE Any AE, Grade ≥3",[1],"1 (50) patients, n (%)"
same,"TEAE Arthralgia, Grade 1–2",[1],"0 patients, n (%)"
same,"TEAE Arthralgia, Grade ≥3",[1],"0 patients, n (%)"
same,"TEAE Aspartate aminotransferase increased, Grade 1–2",[1],"0 patients, n (%)"
same,"TEAE Aspartate aminotransferase increased, Grade ≥3",[1],"0 patients, n (%)"
same,"TEAE Constipation, Grade 1–2",[1],"1 (50) patients, n (%)"
same,"TEAE Constipation, Grade ≥3",[1],"0 patients, n (%)"
same,"TEAE Contusion, Grade 1–2",[1],"0 patients, n (%)"
same,"TEAE Contusion, Grade ≥3",[1],"0 patients, n (%)"
same,"TEAE Cough, Grade 1–2",[1],"0 patients, n (%)"
same,"TEAE Cough, Grade ≥3",[1],"0 patients, n (%)"
same,"TEAE Decreased appetite, Grade 1–2",[1],"0 patients, n (%)"
same,"TEAE Decreased appetite, Grade ≥3",[1],"0 patients, n (%)"
same,"TEAE Diarrhea, Grade 1–2",[1],"1 (50) patients, n (%)"
same,"TEAE Diarrhea, Grade ≥3",[1],"0 patients, n (%)"
same,"TEAE Dizziness, Grade 1–2",[1],"0 patients, n (%)"
same,"TEAE Dizziness, Grade ≥3",[1],"0 patients, n (%)"
same,"TEAE Dyspnea, Grade 1–2",[1],"1 (50) patients, n (%)"
same,"TEAE Dyspnea, Grade ≥3",[1],"0 patients, n (%)"
same,"TEAE Fatigue, Grade 1–2",[1],"2 (100) patients, n (%)"
same,"TEAE Fatigue, Grade ≥3",[1],"0 patients, n (%)"
same,"TEAE Hypocalcemia, Grade 1–2",[1],"0 patients, n (%)"
same,"TEAE Hypocalcemia, Grade ≥3",[1],"0 patients, n (%)"
same,"TEAE Insomnia, Grade 1–2",[1],"0 patients, n (%)"
same,"TEAE Insomnia, Grade ≥3",[1],"0 patients, n (%)"
same,"TEAE Lower respiratory tract infection, Grade 1–2",[1],"0 patients, n (%)"
same,"TEAE Lower respiratory tract infection, Grade ≥3",[1],"0 patients, n (%)"
same,"TEAE Nausea, Grade 1–2",[1],"1 (50) patients, n (%)"
same,"TEAE Nausea, Grade ≥3",[1],"0 patients, n (%)"
same,"TEAE Neutropenia, Grade 1–2",[1],"0 patients, n (%)"
same,"TEAE Neutropenia, Grade ≥3",[1],"1 (50) patients, n (%)"
same,"TEAE Neutrophil count decreased, Grade 1–2",[1],"0 patients, n (%)"
same,"TEAE Neutrophil count decreased, Grade ≥3",[1],"0 patients, n (%)"
same,"TEAE Platelet count decreased, Grade 1–2",[1],"0 patients, n (%)"
same,"TEAE Platelet count decreased, Grade ≥3",[1],"0 patients, n (%)"
same,"TEAE Pyrexia, Grade 1–2",[1],"1 (50) patients, n (%)"
same,"TEAE Pyrexia, Grade ≥3",[1],"0 patients, n (%)"
same,"TEAE Thrombocytopenia, Grade 1–2",[1],"1 (50) patients, n (%)"
same,"TEAE Thrombocytopenia, Grade ≥3",[1],"1 (50) patients, n (%)"
same,"TEAE Upper respiratory tract infection, Grade 1–2",[1],"0 patients, n (%)"
same,"TEAE Upper respiratory tract infection, Grade ≥3",[1],"0 patients, n (%)"
same,"TEAE Vomiting, Grade 1–2",[1],"1 (50) patients, n (%)"
same,"TEAE Vomiting, Grade ≥3",[1],"0 patients, n (%)"
same,"TEAE White blood cell count decreased, Grade 1–2",[1],"0 patients, n (%)"
same,"TEAE White blood cell count decreased, Grade ≥3",[1],"1 (50) patients, n (%)"
same,SRC decision (tolerability),"Cohort 1: 20 mg BID days 4–20 (17 days) + carboplatin AUC5, 2 patients",declared intolerable; also recorded: Not tolerated
same,"TEAE Abdominal pain, Grade 1–2",[2],"0 patients, n (%)"
same,"TEAE Abdominal pain, Grade ≥3",[2],"0 patients, n (%)"
same,"TEAE Alanine aminotransferase increased, Grade 1–2",[2],"1 (14) patients, n (%)"
same,"TEAE Alanine aminotransferase increased, Grade ≥3",[2],"0 patients, n (%)"
same,"TEAE Anemia, Grade 1–2",[2],"2 (29) patients, n (%)"
same,"TEAE Anemia, Grade ≥3",[2],"2 (29) patients, n (%)"
same,"TEAE Any AE, Grade 1–2",[2],"2 (29) patients, n (%)"
same,"TEAE Any AE, Grade ≥3",[2],"5 (71) patients, n (%)"
same,"TEAE Arthralgia, Grade 1–2",[2],"1 (14) patients, n (%)"
same,"TEAE Arthralgia, Grade ≥3",[2],"0 patients, n (%)"
same,"TEAE Aspartate aminotransferase increased, Grade 1–2",[2],"1 (14) patients, n (%)"
same,"TEAE Aspartate aminotransferase increased, Grade ≥3",[2],"0 patients, n (%)"
same,"TEAE Constipation, Grade 1–2",[2],"2 (29) patients, n (%)"
same,"TEAE Constipation, Grade ≥3",[2],"0 patients, n (%)"
same,"TEAE Contusion, Grade 1–2",[2],"1 (14) patients, n (%)"
same,"TEAE Contusion, Grade ≥3",[2],"0 patients, n (%)"
same,"TEAE Cough, Grade 1–2",[2],"5 (71) patients, n (%)"
same,"TEAE Cough, Grade ≥3",[2],"0 patients, n (%)"
same,"TEAE Decreased appetite, Grade 1–2",[2],"1 (14) patients, n (%)"
same,"TEAE Decreased appetite, Grade ≥3",[2],"0 patients, n (%)"
same,"TEAE Diarrhea, Grade 1–2",[2],"2 (29) patients, n (%)"
same,"TEAE Diarrhea, Grade ≥3",[2],"0 patients, n (%)"
same,"TEAE Dizziness, Grade 1–2",[2],"0 patients, n (%)"
same,"TEAE Dizziness, Grade ≥3",[2],"0 patients, n (%)"
same,"TEAE Dyspnea, Grade 1–2",[2],"3 (43) patients, n (%)"
same,"TEAE Dyspnea, Grade ≥3",[2],"0 patients, n (%)"
same,"TEAE Fatigue, Grade 1–2",[2],"4 (58) patients, n (%)"
same,"TEAE Fatigue, Grade ≥3",[2],"1 (14) patients, n (%)"
same,"TEAE Hypocalcemia, Grade 1–2",[2],"0 patients, n (%)"
same,"TEAE Hypocalcemia, Grade ≥3",[2],"0 patients, n (%)"
same,"TEAE Insomnia, Grade 1–2",[2],"2 (29) patients, n (%)"
same,"TEAE Insomnia, Grade ≥3",[2],"0 patients, n (%)"
same,"TEAE Lower respiratory tract infection, Grade 1–2",[2],"2 (29) patients, n (%)"
same,"TEAE Lower respiratory tract infection, Grade ≥3",[2],"0 patients, n (%)"
same,"TEAE Nausea, Grade 1–2",[2],"2 (29) patients, n (%)"
same,"TEAE Nausea, Grade ≥3",[2],"0 patients, n (%)"
same,"TEAE Neutropenia, Grade 1–2",[2],"1 (14) patients, n (%)"
same,"TEAE Neutropenia, Grade ≥3",[2],"0 patients, n (%)"
same,"TEAE Neutrophil count decreased, Grade 1–2",[2],"0 patients, n (%)"
same,"TEAE Neutrophil count decreased, Grade ≥3",[2],"0 patients, n (%)"
same,"TEAE Platelet count decreased, Grade 1–2",[2],"0 patients, n (%)"
same,"TEAE Platelet count decreased, Grade ≥3",[2],"1 (14) patients, n (%)"
same,"TEAE Pyrexia, Grade 1–2",[2],"3 (43) patients, n (%)"
same,"TEAE Pyrexia, Grade ≥3",[2],"0 patients, n (%)"
same,"TEAE Thrombocytopenia, Grade 1–2",[2],"4 (58) patients, n (%)"
same,"TEAE Thrombocytopenia, Grade ≥3",[2],"1 (14) patients, n (%)"
same,"TEAE Upper respiratory tract infection, Grade 1–2",[2],"3 (43) patients, n (%)"
same,"TEAE Upper respiratory tract infection, Grade ≥3",[2],"0 patients, n (%)"
same,"TEAE Vomiting, Grade 1–2",[2],"2 (29) patients, n (%)"
same,"TEAE Vomiting, Grade ≥3",[2],"0 patients, n (%)"
same,"TEAE White blood cell count decreased, Grade 1–2",[2],"0 patients, n (%)"
same,"TEAE White blood cell count decreased, Grade ≥3",[2],"0 patients, n (%)"
same,"TEAE Abdominal pain, Grade 1–2",[3],"0 patients, n (%)"
same,"TEAE Abdominal pain, Grade ≥3",[3],"0 patients, n (%)"
same,"TEAE Alanine aminotransferase increased, Grade 1–2",[3],"0 patients, n (%)"
same,"TEAE Alanine aminotransferase increased, Grade ≥3",[3],"0 patients, n (%)"
same,"TEAE Anemia, Grade 1–2",[3],"1 (33) patients, n (%)"
